Assays:
[1] = system: LDLR level on the surface of HepG2 cells; assay: LDLR expression assay, In-Cell Western (ICW), in the presence of PCSK9; type: cell-based, human; conditions: for effect on LDLR protein level (in words): HepG2 cells in the presence of PCSK9, compared with positive control SBC-115337; for proportion of LDLR: PCSK9 alone 34.33%
Experimental: LDLR is degraded in lysosomes by binding to PCSK9. Thus, inhibition of PCSK9/LDLR PPI could increase the LDLR level on the surface of hepatocytes. In the current study, human hepatic HepG2 cells were selected for the investigation of the active compounds for LDLR expression. SBC-115337, developed by Shifa Biomedical Corporation, as a potent PCSK9/LDLR PPI inhibitor was utilised as the positive control. All the synthesised compounds were evaluated to be safe with low inhibitory ratios at the dose of 10 µM in the MTT assay (Tables 1–3). Then, in cell western (ICW) assay was performed to detect the LDLR level on the surface of HepG2 cells.
The HepG2 cell line was grown in a humidified incubator with 5% CO2 at 37 °C and cultured in DMEM-High glucose medium with 10% (v/v) heat-inactivation foetal bovine serum, 2 mM L-glutamine and 100 U/ml penicillin-streptomycin. The expression level of LDLR in HepG2 cells was determined by In-Cell Western (ICW) Assay as described previously. Briefly, cells were plated in a 96-well plate (2 × 10^4 cells per well) and cultured for more than 24 h, followed by washing with PBS and starving overnight in DMEM without FBS. HepG2 cells were treated with 4.0 μg/ml PCSK9 (K9) alone and the tested compounds with the presence of 4.0 μg/ml of K9, and vehicle (PBS) for 8 h. Then cells were washed with PBS one time and fixed in 4% paraformaldehyde for 20 min. Cells were washed 5 times with PBS, then were blocked with 5% BSA in PBS for 1 h. LDLR monoclonal Antibody solution (1:1000 in 5% BSA in PBS, 50.0 μL/well) was incubated overnight at 4 °C. Subsequently, the cells were washed 5 times with PBS. Goat anti-mouse IgG-HRP secondary antibody solution (1:2000 in 5% BSA in PBS, 50.0 μL/well) was added and incubated 1 h at RT. Then cells were washed 5 times with PBS and added with TMB substrate, then incubated at RT until desired colour was developed. 50.0 μL/well of 2 M H2SO4 were added to stop the reaction and the absorbance at 450 nm was measured using a plate reader (EnSpire, Perkin Elmer Corporation).

[2] = system: HepG2 cells; assay: MTT assay on HepG2 cells; type: cell-based; conditions: Homo sapiens, mean of three experiments, read-out: HepG2 percentage inhibitory rate
[3] = target: PCSK9/LDLR PPI (Homo sapiens, UniProt Q8NBP7); assay: PCSK9-LDLR TR-FRET assay (PCSK9/LDLR PPI inhibitory screening); type: binding; conditions: for inhibition at 10 µM: mean of three experiments, read-out: PCSK9 percentage inhibitory rate; for IC50: dose-dependent IC50 plot, Figure 3, read-out: PCSK9 IC50 (inhibition of PCSK9/LDLR PPI)
Experimental: The PCSK9/LDLR time-resolved fluorescence resonance energy transfer (TR-FRET) assay was performed to evaluate the activity of synthesised compounds in inhibition of PCSK9-LDLR binding. The A series compounds were firstly synthesised for the PCSK9/LDLR PPI inhibitory test. […] Therefore, a group of A12 derivatives (B series) were synthesised with 4-chlorobenzyl substituted in the amino group and various substitutions introduced to the carboxylic group. […] To confirm whether the 4-chloromethyl group is essential for the PPI inhibitory activity, a new series of compounds (C series) were synthesised with the 4-chloromethyl group replaced by 4-methoxymethyl moiety. The inhibitory activity was observed, most likely resulting from the 4-methoxymethyl substitution (Table 3).
The compounds were dissolved in 100% DMSO; then 2 µL of the dilution was added to a 20 µL of reaction to keep […] in all of reactions. The binding reaction was conducted at room temperature. The reaction mixture in assay buffer contains PCSK9, the indicated amount of the inhibitor, ligand LDLR, and the reaction dyes. The reaction mixture was incubated for 120 min before detection of the TR-FRET signal. Fluorescence signals for both the donor and acceptor dyes were measured using a Tecan Infinite M1000 plate reader. TR-FRET was recorded as the ratio of the fluorescence of the acceptor and the donor dyes (acceptor/donor). The TR-FRET data were analysed using Graphpad Prism software.

[4] = system: LDL uptake of HepG2 cells; assay: Fluorescent LDL uptake assay in the presence of PCSK9; type: cell-based, human; conditions: PCSK9 treatment group 29.82%
Experimental: Extracellular LDL uptake assay was performed to evaluate the functional effects of PCSK9/LDLR PPI inhibition. The effects of active compounds in improving the capacity of HepG2 cells to uptake the fluorescent LDL were investigated using SBC-115337 as the positive control. […] The tested compound A12, B1, B3, B4 and B14 strengthened the ability of HepG2 cells to absorb LDL from 29.82% of the PCSK9 treatment group up to 32.78%, 33.29%, 39.58%, 36.24% and 42.41% at the doses of 5 µM, and 44.80%, 47.15%, 50.67%, 49.94 and 64.27% at the doses of 10 µM, respectively.
HepG2 cells (2 × 10^4 cells per well) were seeded in black 96-well plates and cultured for more than 24 h. The following day, cells were treated with 4.0 μg/ml K9 alone and the tested compounds with the presence of 4.0 μg/ml of K9, and vehicle (PBS) for 8 h. At the end of the treatments, the culture medium was replaced with 50.0 μl/well LDL-DyLight™ 550 working solution (Cayman Chemical Company, US). The cells were additionally incubated for 16 h at 37 °C. Then the cells were washed with PBS one time, then added PBS with 100.0 μl/well. The degree of LDL uptake was measured using a plate reader (EnSpire, Perkin Elmer Corporation) at excitation wavelengths 540 nm and emission wavelengths 570 nm.

[5] = 5 µM compound with 4.0 μg/ml PCSK9
[6] = 10 µM compound with 4.0 μg/ml PCSK9

Sequence of PCSK9/LDLR PPI (Q8NBP7 153-692): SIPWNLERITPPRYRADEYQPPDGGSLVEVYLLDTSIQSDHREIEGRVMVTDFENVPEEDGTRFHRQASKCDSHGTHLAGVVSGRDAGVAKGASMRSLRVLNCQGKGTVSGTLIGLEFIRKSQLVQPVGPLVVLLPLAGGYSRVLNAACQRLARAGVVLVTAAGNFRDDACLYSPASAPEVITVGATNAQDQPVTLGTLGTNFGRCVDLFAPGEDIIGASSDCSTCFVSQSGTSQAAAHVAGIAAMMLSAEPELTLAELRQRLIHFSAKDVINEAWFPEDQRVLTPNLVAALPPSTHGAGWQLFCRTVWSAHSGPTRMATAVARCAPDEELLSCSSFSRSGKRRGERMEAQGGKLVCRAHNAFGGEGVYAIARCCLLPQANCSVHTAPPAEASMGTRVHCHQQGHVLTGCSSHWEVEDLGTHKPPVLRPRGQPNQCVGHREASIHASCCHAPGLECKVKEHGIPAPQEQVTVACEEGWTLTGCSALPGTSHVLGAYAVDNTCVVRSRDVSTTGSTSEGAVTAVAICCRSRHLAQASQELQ
Sequence of PCSK9/LDLR PPI (Q8NBP7 31-152 partner limits assumed): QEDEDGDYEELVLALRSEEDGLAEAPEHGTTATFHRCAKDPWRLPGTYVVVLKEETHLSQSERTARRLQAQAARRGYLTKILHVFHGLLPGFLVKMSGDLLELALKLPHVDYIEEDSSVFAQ

inhibition at 10 µM [3]	IC50 [3]	Structure (SMILES)	effect on LDLR protein level (in words) [1]	inhibition at 10 µM [2]	LDL uptake of HepG2 cells [4, 5]	LDL uptake of HepG2 cells [4, 6]	proportion of LDLR ([1]; 5 µM compound with 4.0 μg/ml PCSK9, 8 h)	proportion of LDLR ([1]; 10 µM compound with 4.0 μg/ml PCSK9, 8 h)
3.75 ± 0.33%	–	COCc1ccc(C(=O)Nc2cc3c(cc2-c2ccc(C(=O)Nc4ccc(N5CCN(C)CC5)cc4)cc2)OCO3)cc1 [C9, 4-(Methoxymethyl)-N-(6-(4-((4-(4-methylpiperazin-1-yl)phenyl)carbamoyl)phenyl)benzo[d][1,3]dioxol-5-yl)benzamide]	–	6.22 ± 0.24%	–	–	–	–
5.48 ± 0.2%	–	COCc1ccc(C(=O)Nc2cc3c(cc2-c2ccc(C(=O)NC(C)C)cc2)OCO3)cc1 [C10, N-isopropyl-4-(6-(4-(methoxymethyl)benzamido)benzo[d][1,3]dioxol-5-yl)benzamide]	–	6.76 ± 0.18%	–	–	–	–

Continued, molecule first:

Structure (SMILES)	inhibition at 10 µM [3]	IC50 [3]	effect on LDLR protein level (in words) [1]	inhibition at 10 µM [2]	LDL uptake of HepG2 cells [4, 5]	LDL uptake of HepG2 cells [4, 6]	proportion of LDLR ([1]; 5 µM compound with 4.0 μg/ml PCSK9, 8 h)	proportion of LDLR ([1]; 10 µM compound with 4.0 μg/ml PCSK9, 8 h)
COc1cc(NC(=O)c2ccc(-c3cc4c(cc3NC(=O)c3ccc(CCl)cc3)OCO4)cc2)cc(OC)c1OC [A12, 4-(Chloromethyl)-N-(6-(4-((3,4,5-trimethoxyphenyl)carbamoyl)phenyl)benzo[d][1,3]dioxol-5-yl)benzamide]	45.1 ± 0.12%	70.8 µM	restored the LDLR protein level in a dose dependent manner	7.85 ± 0.25%	32.78%	44.80%	–	–
O=C(Nc1ccc(Cl)cc1)c1ccc(-c2cc3c(cc2NC(=O)c2ccc(CCl)cc2)OCO3)cc1 [B1, 4-(Chloromethyl)-N-(6-(4-((4-chlorophenyl)carbamoyl)phenyl)benzo[d][1,3]dioxol-5-yl)benzamide]	54.3 ± 1.54%	62.2 µM	restored the LDLR protein level in a dose dependent manner	9.97 ± 0.39%	33.29%	47.15%	–	–
O=C(Nc1ccc(F)cc1)c1ccc(-c2cc3c(cc2NC(=O)c2ccc(CCl)cc2)OCO3)cc1 [B3, 4-(Chloromethyl)-N-(6-(4-((4-fluorophenyl)carbamoyl)phenyl)benzo[d][1,3]dioxol-5-yl)benzamide]	46.3 ± 2.77%	23.4 µM	restored the LDLR protein level in a dose dependent manner	8.09 ± 0.76%	39.58%	50.67%	–	–
O=C(Nc1ccc(O)cc1)c1ccc(-c2cc3c(cc2NC(=O)c2ccc(CCl)cc2)OCO3)cc1 [B4, 4-(Chloromethyl)-N-(6-(4-((4-hydroxyphenyl)carbamoyl)phenyl)benzo[d][1,3]dioxol-5-yl)benzamide]	45.2 ± 2.85%	24.6 µM	restored the LDLR protein level in a dose dependent manner	5.42 ± 0.38%	36.24%	49.94%	–	–
COc1ccccc1N1CCN(C(=O)c2ccc(-c3cc4c(cc3NC(=O)c3ccc(CCl)cc3)OCO4)cc2)CC1 [B14, 4-(Chloromethyl)-N-(6-(4-(4-(2-methoxyphenyl)piperazine-1-carbonyl)phenyl)benzo[d][1,3]dioxol-5-yl)benzamide]	64.6 ± 1.54%	16.4 µM	restored the LDLR protein level in a dose dependent manner	5.71 ± 0.54%	42.41%	64.27%	50.55%	66.51%

Reference: PMC9307114, “Discovery and SAR analysis of phenylbenzo[d][1,3]dioxole-based proprotein convertase subtilisin/kexin type 9 inhibitors” (Journal of Enzyme Inhibition and Medicinal Chemistry, 2022)
